Reference: patent US7030138B2, “Benzamidine derivatives” (Sankyo Company, Limited, priority 2001, dated 2006)
Where a name gives a salt, the structure may show the parent alone.

Assays:
human factor-Xa = molecular target: T1, human factor-Xa (Homo sapiens, UniProt P00742); assay: Determination of anti-factor Xa activity (S-2222 coloring substrate, absorbance at 405 nm); format: biochemical; conditions: human factor-Xa 0.25 unit/ml, S-2222 0.4 mM, Tris buffer pH 8.4, room temperature, 5 minutes; read-out: Inhibitory Action against Factor Xa Activity (IC50 (nM))
T1 construct: purchased Cosmobio Co., Ltd
Experimental: Determination of Anti-factor Xa Activity
Anti-factor Xa activity was determined according to methods described by Hara et al. [Thrombo. Haemost., 71, 314 (1994)], which were slightly modified. S-2222, a coloring substrate (0.4 mM, Daiichi Pure Chemicals Co., Ltd.) and the test compounds were mixed in Tris hydrochloride buffered solution (50 mM, pH: 8.4) containing NaCl (0.9%). To this solution, human factor-Xa (0.25 unit/ml, Cosmobio Co., Ltd.) was added and the reaction was started. In the control group, distilled water was added to the Tris-buffered solution instead of the test compound. The reaction mixture (in total: 0.1 ml) was incubated at room temperature for 5 minutes. Optical absorbance of the reaction mixture was continuously determined at 405 nm with a 96-well microplate reader (Model 550, Biorad) and increase in the absorbance for 5 minutes was calculated as an indicator of factor Xa activity. To assess anti-factor Xa activities of the test compounds, concentrations of the test compounds to inhibit the factor Xa activity by 50% (IC50) were calculated.

bovine trypsin = molecular target: T2, bovine trypsin (Bos taurus, UniProt P00760); assay: Determination of anti-trypsin activity (S-2222 coloring substrate, absorbance at 405 nm); format: biochemical; conditions: bovine trypsin 0.25 μg-protein/ml, S-2222 0.4 mM, Tris buffer pH 8.4, room temperature, 5 minutes; read-out: Inhibitory Action against Trypsin Activity (IC50 (nM))
T2 construct: purchased Sigma
T2 sequence (P00760 24-246): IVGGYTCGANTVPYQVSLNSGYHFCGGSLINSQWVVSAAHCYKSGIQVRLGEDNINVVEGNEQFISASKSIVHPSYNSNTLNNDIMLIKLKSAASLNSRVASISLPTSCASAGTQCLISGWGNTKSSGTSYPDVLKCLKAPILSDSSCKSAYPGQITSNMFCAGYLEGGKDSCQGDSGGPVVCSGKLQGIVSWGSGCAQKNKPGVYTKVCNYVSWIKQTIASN
Experimental: Determination of Anti-trypsin Activity
Anti-trypsin activity was determined according to methods described by Taniuchi et al. [Thromb. Haemost., 79, 543 (1998)], which were partially modified. S-2222, a coloring substrate (5 μl, final concentration: 0.4 mM, Daiichi Pure Chemicals Co., Ltd.) and the test compound (5 μl) were mixed with Tris hydrochloride buffered solution (50 mM, 85 μl, pH: 8.4) containing NaCl (0.9%). To this solution, bovine trypsin (5 μl, final concentration: 0.25 μg-protein/ml, Sigma) was added and the reaction was started. In the control group, distilled water was added to the Tris-buffered solution instead of the test compound. The reaction mixture (in total: 0.1 ml) was incubated at room temperature. Optical absorbance was continuously determined at 405 nm with a 96-well microplate reader (Model 550, Biorad) and increase in the absorbance for 5 minutes was calculated as an indicator of trypsin activity. To assess anti-trypsin activities of the test compounds, concentrations of the test compounds to inhibit the trypsin activity by 50% (IC50) were calculated.

T1 sequence (P00742 235-488 limits assumed): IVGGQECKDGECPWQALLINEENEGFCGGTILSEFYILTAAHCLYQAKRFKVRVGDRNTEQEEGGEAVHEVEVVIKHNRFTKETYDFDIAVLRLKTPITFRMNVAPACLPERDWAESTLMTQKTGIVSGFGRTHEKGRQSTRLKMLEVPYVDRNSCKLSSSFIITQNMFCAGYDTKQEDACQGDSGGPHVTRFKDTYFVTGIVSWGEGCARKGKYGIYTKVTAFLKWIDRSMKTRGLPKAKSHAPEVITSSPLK
T1 sequence (P00742 41-179 partner limits assumed): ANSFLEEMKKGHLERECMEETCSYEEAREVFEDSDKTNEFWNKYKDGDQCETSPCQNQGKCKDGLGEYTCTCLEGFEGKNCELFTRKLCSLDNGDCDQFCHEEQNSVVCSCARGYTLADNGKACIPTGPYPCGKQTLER

For `CCN1CCC(Oc2ccc(N(C/C=C/c3cccc(C(=N)N)c3)S(=O)(=O)CC(=O)O)cc2Cl)CC1` [Example 4, N-[3-(3-Amidinophenyl)-2-(E)-propenyl]-N-[3-chloro-4-(1-ethylpiperidin-4-yloxy)phenyl]sulfamoylacetic acid dihydrochloride], the IC50 (human factor-Xa) was 10 nM.
Work on `N=C(N)c1cccc(/C=C/CN(c2ccc(OC3CCN(Cc4ccccc4)CC3)c(Cl)c2)S(=O)(=O)CC(=O)O)c1` [Example 10, N-[3-(3-Amidinophenyl)-2-(E)-propenyl]-N-[4-(1-benzylpiperidin-4-yloxy)-3-chlorophenyl]sulfamoylacetic acid dihydrochloride] yielded an IC50 (human factor-Xa) of 15 nM.
In the case of `N=C(N)c1cccc(/C=C/CN(c2ccc(OC3CCN(CCc4ccccc4)CC3)c(Cl)c2)S(=O)(=O)CC(=O)O)c1` [Example 12, N-[3-(3-Amidinophenyl)-2-(E)-propenyl]-N-[3-chloro-4-(1-phenethylpiperidin-4-yloxy)phenyl]sulfamoylacetic acid dihydrochloride], the IC50 (human factor-Xa) is reported as 13 nM.
Molecule `CCOC(=O)CS(=O)(=O)N(C/C=C/c1cccc(C(=N)N)c1)c1ccc(OC2CCN(c3ccncc3)CC2)c(Cl)c1` [Example 27, Ethyl N-[3-(3-amidinophenyl)-2-(E)-propenyl]-N-[3-chloro-4-[1-(4-pyridyl)piperidin-4-yloxy]phenyl]sulfamoylacetate dihydrochloride] has an IC50 (human factor-Xa) of 7.9 nM and an IC50 (bovine trypsin) of 540 nM.
`N=C(N)c1cccc(/C=C/CN(c2ccc(OC3CCN(c4ccncc4)CC3)c(Cl)c2)S(=O)(=O)CC(=O)O)c1` [Example 28, N-[3-(3-Amidinophenyl)-2-(E)-propenyl]-N-[3-chloro-4-[1-(4-pyridyl)piperidin-4-yloxy]phenyl]sulfamoylacetic acid dihydrochloride] was tested, and the IC50 (human factor-Xa) was 6.4 nM and the IC50 (bovine trypsin) was 650 nM.
`N=C(N)c1cccc(/C=C/CN(c2ccc(OC3CCN(CCc4ccccn4)CC3)c(Cl)c2)S(=O)(=O)CC(=O)O)c1` [Example 36, N-[3-(3-Amidinophenyl)-2-(E)-propenyl]-N-[3-chloro-4-[1-[2-(2-pyridyl)ethyl]piperidin-4-yloxy]phenyl]sulfamoylacetic acid trihydrochloride] showed an IC50 (human factor-Xa) of 13 nM.
`N=C(N)c1cccc(/C=C/CN(c2ccc(OC3CCN(C4CCCC4)CC3)c(Cl)c2)S(=O)(=O)CC(=O)O)c1` [Example 38, N-[3-(3-Amidinophenyl)-2-(E)-propenyl]-N-[3-chloro-4-(1-cyclopentylpiperidin-4-yloxy)phenyl]sulfamoylacetic acid dihydrochloride] gave an IC50 (human factor-Xa) of 12 nM.
`N=C(N)c1cccc(/C=C/CN(c2ccc(OC3CCN4CCCC4C3)c(Cl)c2)S(=O)(=O)CC(=O)O)c1` (stereo not shown) [Example 42, dihydrochloride] gave an IC50 (human factor-Xa) of 11 nM and an IC50 (bovine trypsin) of 7300 nM.
`CCOC(=O)CS(=O)(=O)N(C/C=C/c1cccc(C(=N)N)c1)c1ccc(OC2CCN(C)CC2)c(C(F)(F)F)c1` [Example 45, Ethyl N-[3-(3-amidinophenyl)-2-(E)-propenyl]-N-[4-(1-methylpiperidin-4-yloxy)-3-trifluoromethylphenyl]sulfamoylacetate dihydrochloride] showed an IC50 (human factor-Xa) of 7.9 nM.
With `CN1CCC(Oc2ccc(N(C/C=C/c3cccc(C(=N)N)c3)S(=O)(=O)CC(=O)O)cc2C(F)(F)F)CC1` [Example 46, N-[3-(3-Amidinophenyl)-2-(E)-propenyl]-N-[4–1-methylpiperidin-4-yloxy)-3-trifluoromethylphenyl]sulfamoylacetic acid dihydrochloride] the IC50 (human factor-Xa) was 11 nM.
In the case of `CCOC(=O)CS(=O)(=O)N(C/C=C/c1cccc(C(=N)N)c1)c1ccc(OC2CCN(C=N)CC2)c(Cl)c1` [Example 47, Ethyl N-[3-(3-amidinophenyl)-2-(E)-propenyl]-N-[3-chloro-4-[(1-formimidoylpiperidin-4-yloxy)phenyl]sulfamoylacetatedihydrochloride], the IC50 (human factor-Xa) is reported as 6.1 nM and the IC50 (bovine trypsin) is reported as 790 nM.
With `N=CN1CCC(Oc2ccc(N(C/C=C/c3cccc(C(=N)N)c3)S(=O)(=O)CC(=O)O)cc2Cl)CC1` [Example 48, N-13-(3-Amidinophenyl)-2-(E)-propenyl]-N-[3-chloro-4-(1-formimidoylpiperidin-4-yloxy]phenyl]sulfamoylacetic acid dihydrochloride] the IC50 (human factor-Xa) was 5.8 nM and the IC50 (bovine trypsin) was 1200 nM.
Work on `CCOC(=O)CS(=O)(=O)N(C/C=C/c1cccc(C(=N)N)c1)c1ccc(OC2CCN(C(=N)CC)CC2)c(Cl)c1` [Example 49, Ethyl N-[3-(3-amidinophenyl)-2-(E)-propenyl]-N-[3-chloro-4-[1-(1-iminopropyl)piperidin-4-yloxy]phenyl-1 sulfamoylacetatedihydrochloride] yielded an IC50 (human factor-Xa) of 6.8 nM and an IC50 (bovine trypsin) of 860 nM.
With `CCOC(=O)CS(=O)(=O)N(C/C=C/c1cccc(C(=N)N)c1)c1ccc(OC2CCN(C(=N)c3ccccc3)CC2)c(Cl)c1` [Example 51, Ethyl N-[3-(3-amidinophenyl)-2-(E)-propenyl]-N-[4-(1-iminophenylmethylpiperidin-4-yloxy)-3-chlorophenyl]sulfamoylacetate dihydrochloride] the IC50 (human factor-Xa) was 6.9 nM.
`N=C(N)c1cccc(/C=C/CN(c2ccc(OC3CCN(C(=N)c4ccccc4)CC3)c(Cl)c2)S(=O)(=O)CC(=O)O)c1` [Example 52, N-[3-(3-Amidinophenyl)-2-(E)-propenyl]-N-[4-(1-iminophenylmethylpiperidin-4-yloxy)-3-chlorophenyl]sulfamoylacetic acid dihydrochloride] was tested, and the IC50 (human factor-Xa) was 7.8 nM.
For `N=C(N)c1cccc(/C=C/CN(c2ccc(OC3CCN(C4=NCCCC4)CC3)c(Cl)c2)S(=O)(=O)CC(=O)O)c1` [Example 56, N-[3-(3-Amidinophenyl)-2-(E)-propenyl]-N-[3-chloro-4-[1-(2,3,4,5-tetrahydropyridin-6-yl)piperidin-4-yloxy]phenyl]sulfamoylacetic acid dihydrochloride], the IC50 (human factor-Xa) was 10 nM.
`CCOC(=O)CS(=O)(=O)N(C/C=C/c1cccc(C(=N)N)c1)c1ccc(OC2CCN(C3=NCCCC3)CC2)c(C)c1` [Example 67, Ethyl N-[3-(3-amidinophenyl)-2-(E)-propenyl]-N-[3-methyl-4-[1-(2,3,4,5-tetrahydropyridin-6-yl)piperidin-4-yloxy]phenyl]sulfamoylacetate dihydrochloride] showed an IC50 (human factor-Xa) of 15 nM.
For `Cc1cc(N(C/C=C/c2cccc(C(=N)N)c2)S(=O)(=O)CC(=O)O)ccc1OC1CCN(C2=NCCCC2)CC1` [Example 68, N-[3-(3-Amidinophenyl)-2-(E)-propenyl]-N-[3-methyl-4-(2,3,4,5-tetrahydropyridin-6-yl)piperidin-4-yloxy]phenyl]sulfamoylacetic acid dihydrochloride], the IC50 (human factor-Xa) was 15 nM.
For `CCOC(=O)CS(=O)(=O)N(C/C=C/c1cccc(C(=N)N)c1)c1ccc(OC2CCN(C3=NCCCC3)CC2)c(C(F)(F)F)c1` [Example 79, Ethyl N-[3-(3-amidinophenyl)-2-(E)-propenyl]-N-[4-[1-(2,3,4,5-tetrahydropyridin-6-yl)piperidin-4-yloxy]-3-trifluoromethylphenyl]sulfamoylacetate dihydrochloride], the IC50 (human factor-Xa) was 15 nM.
Molecule `N=C(N)c1cccc(/C=C/CN(c2ccc(OC3CCN(C4=NCCCC4)CC3)c(C(F)(F)F)c2)S(=O)(=O)CC(=O)O)c1` [Example 80, N-[3-(3-Amidinophenyl)-2-(E)-propenyl]-N-[4-[1-(2,3,4,5-tetrahydropyridin-6-yl)piperidin-4-yloxy]-3-trifluoromethylphenyl]sulfamoylacetic acid dihydrochloride] has an IC50 (human factor-Xa) of 11 nM.
For `CCOC(=O)CS(=O)(=O)N(C/C=C/c1cccc(C(=N)N)c1)c1ccc(OC2CCN(C3=NCCSC3)CC2)c(Cl)c1` [Example 83, Ethyl N-[3-(3-amidinophenyl)-2-(E)-propenyl]-N-[3-chloro-4-[1-(5,6-dihydro-2H-[1,4]thiazin-3-yl)piperidin-4-yloxy]phenyl]sulfamoylacetate dihydrochloride], the IC50 (human factor-Xa) was 13 nM.
With `CCN=CN1CCC(Oc2ccc(N(CC=Cc3cccc(C(=N)N)c3)S(=O)(=O)CC(=O)OCC)cc2Cl)CC1` [Example 86, Ethyl N-[3-(3-amidinophenyl)-2-(E)-propenyl]-N-[3-chloro-4-[1-(N-ethylformimidoyl)piperidin-4-yloxy]phenyl]sulfamoylacetate dihydrochloride] the IC50 (human factor-Xa) was 15 nM.
